Laboratory results reported in the supplement of paper PMC10307832.

Tests used:
Assay in all cases: relative viability (nuclei count vs DMSO), 5 days (fraction); higher = more cells survive
[1] = compound: CC1(COc2ccc3c(c2)ncn3-c2ccc3cccc(N4CCC(N)CC4)c3n2)COC1 [Crenolanib] + O=C(c1cc(Cc2n[nH]c(=O)c3ccccc23)ccc1F)N1CCN(C(=O)C2CC2)CC1 [Olaparib] (partner 8 µM)
Outline: (§1)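 Relative viability was taken as the ratio of nuclei in treated wells to nuclei in vehicle wells. Lung cancer cell lines in 1536-well plates received compounds by pin tool one day after seeding, either one drug alone or a fixed anchor-drug dose plus five library-drug doses (not always all listed) in √10 steps. Nuclei were counted on 4× images after 5 days of treatment, and values are medians of duplicate plates.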

[2] = compound: O=C1NC(=O)[C@@H](c2cn3c4c(cccc24)CCC3)[C@@H]1c1c[nH]c2ccccc12 [Tivantinib] + O=C(CCCCCCC(=O)Nc1ccccc1)NO [Vorinostat] (partner 1 µM)
Outline: as §1

[3] = compound: CC1(COc2ccc3c(c2)ncn3-c2ccc3cccc(N4CCC(N)CC4)c3n2)COC1 [Crenolanib] + Nc1nc2[nH]cc(CCc3ccc(C(=O)N[C@@H](CCC(=O)O)C(=O)O)cc3)c2c(=O)[nH]1 [Pemetrexed] (partner 0.2 µM)
Outline: as §1

[4] = compound: O=C1NC(=O)[C@@H](c2cn3c4c(cccc24)CCC3)[C@@H]1c1c[nH]c2ccccc12 [Tivantinib] + CS(=O)(=O)N1CCN(Cc2cc3nc(-c4cccc5[nH]ncc45)nc(N4CCOCC4)c3s2)CC1 [Pictilisib] (partner 1 µM)
Outline: as §1

Cell Line	relative viability ([1]; first compound 0.01 µM)	relative viability ([1]; first compound 0.03162 µM)	relative viability ([1]; first compound 0.1 µM)	relative viability ([1]; first compound 0.3162 µM)	relative viability ([1]; first compound 1 µM)	relative viability ([2]; first compound 0.01 µM)	relative viability ([2]; first compound 0.03162 µM)	relative viability ([2]; first compound 0.1 µM)	relative viability ([2]; first compound 0.3162 µM)	relative viability ([3]; first compound 0.01 µM)	relative viability ([3]; first compound 0.03162 µM)	relative viability ([3]; first compound 0.1 µM)	relative viability ([3]; first compound 0.3162 µM)	relative viability ([3]; first compound 1 µM)	relative viability ([4]; first compound 0.01 µM)	relative viability ([4]; first compound 0.03162 µM)	relative viability ([4]; first compound 0.1 µM)	relative viability ([4]; first compound 0.3162 µM)
201T	0.83	0.852	0.786	0.867	0.86	0.894	0.835	0.898	0.907	0.324	0.323	0.34	0.322	0.338	0.713	0.569	0.673	0.694
A549	0.474	0.317	0.329	0.421	0.365	–	–	–	–	–	–	–	–	–	0.495	0.518	0.468	0.449
A-427	0.79	–	0.759	0.847	0.629	0.859	0.938	0.842	0.85	1.01	–	0.99	0.989	0.834	0.663	0.702	0.677	0.749
ABC-1	1.01	0.78	0.614	0.668	0.625	1.44	1.32	1.01	1.21	–	–	–	–	–	0.802	0.51	0.681	0.731
BEN	1.15	0.96	0.966	1.01	1.05	0.591	0.566	0.528	0.515	0.784	0.637	0.677	0.752	0.774	0.703	0.41	0.501	0.432
CAL-12T	0.746	0.694	0.721	0.771	0.725	0.67	0.874	0.74	0.568	1.28	1.27	1.22	1.34	1.31	0.393	0.377	0.377	0.265
COR-L23	0.321	0.342	0.307	0.347	0.291	0.528	0.509	0.426	0.608	0.185	0.189	0.201	0.199	0.202	0.809	0.63	0.762	0.98
COR-L 105	0.729	0.641	0.643	0.751	0.584	0.89	0.786	0.722	0.771	1.25	1.09	1.09	1.14	1.1	0.401	0.335	0.389	0.406
Calu-6	0.596	0.494	0.529	0.643	0.556	–	–	–	–	–	–	–	–	–	0.917	0.931	0.901	0.889
ChaGo-K-1	0.398	0.406	0.426	0.422	0.45	0.76	0.704	0.704	0.717	0.26	0.256	0.255	0.253	0.27	0.851	0.608	0.757	0.646
EBC-1	0.768	0.727	0.667	0.663	0.641	–	–	–	–	–	–	–	–	–	0.492	0.444	0.471	0.345
EKVX	0.93	0.849	0.841	0.965	0.809	0.732	0.725	0.704	0.383	0.413	0.423	0.401	0.379	0.387	0.449	0.381	0.417	0.163
EMC-BAC-2	0.559	–	0.466	0.532	0.462	0.532	0.522	0.496	0.582	0.437	–	0.456	0.449	0.436	0.562	0.511	0.567	0.527
EPLC-272H	0.854	0.868	0.605	1.11	0.989	0.493	0.599	0.41	0.296	0.322	0.342	0.346	0.336	0.353	0.346	0.3	0.357	0.278
H3255	0.57	0.541	0.552	0.586	0.531	–	0.843	0.753	0.295	0.597	0.563	0.544	0.553	0.589	0.466	0.494	0.485	–
HARA	0.846	0.949	0.707	0.87	0.683	0.446	0.512	0.607	0.434	0.3	0.231	0.224	0.225	0.236	0.389	0.237	0.474	0.253
HCC-15	0.828	0.734	0.726	0.631	0.63	0.827	0.82	0.795	0.793	0.23	0.215	0.227	0.228	0.213	0.705	0.671	0.674	0.799
HCC-44	0.983	0.941	0.976	0.98	0.991	1.09	1.07	1.1	1.07	0.639	0.662	0.707	0.632	0.642	0.69	0.523	0.886	0.728
HCC-78	0.998	0.86	0.678	0.826	0.745	0.48	0.408	0.346	0.337	0.864	1.01	0.909	0.956	0.865	0.241	0.177	0.204	0.196
HCC-366	0.414	0.362	0.344	0.509	0.332	0.389	0.287	0.373	0.415	0.179	0.161	0.171	0.181	0.157	0.157	0.147	0.119	0.141
